Experimental data from PubChem BioAssay AID1919002 (Molecular Pharmacology Branch, DTP, NCI, 2023).
Several values for one entry are separate records, joined by “and”; a condition that tells them apart may be missing. Identical values can stand only once. Blank lines part the entries; values can stand above or below the compound they belong to.

System: 743489-274-T-PDC complex spheroid growth
Assay: Anticancer human tumor 743489-274-T-PDC patient-derived renal cell carcinoma cell line growth inhibition [AhR]
Conditions: for viability, T/C: stronger effect = lower value
In short: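 Complex tumor spheroids co-cultured with HUVEC and human MSC stroma; AhR antagonists tested in combination with standard-of-care and investigational agents. Top concentration at or near clinical Cmax (else 10 microM), half-log dilutions; growth expressed as percent test/control.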

[1] = curve of first compound, second compound 0.1 µM
[2] = curve of first compound, second compound 0.316 µM
[3] = curve of first compound, second compound 1 µM
[4] = curve of first compound, second compound 3.16 µM
[5] = curve of first compound, second compound 10 µM
[6] = second compound 0.1 µM, first compound 0.0316 µM
[7] = second compound 0.1 µM, first compound 0.1 µM
[8] = second compound 0.1 µM, first compound 0.316 µM
[9] = second compound 0.1 µM, first compound 1 µM
[10] = second compound 0.1 µM, first compound 3.16 µM
[11] = second compound 0.1 µM, first compound 10 µM
[12] = second compound 0.316 µM, first compound 0.0316 µM
[13] = second compound 0.316 µM, first compound 0.1 µM
[14] = second compound 0.316 µM, first compound 0.316 µM
[15] = second compound 0.316 µM, first compound 1 µM
[16] = second compound 0.316 µM, first compound 3.16 µM
[17] = second compound 0.316 µM, first compound 10 µM
[18] = second compound 1 µM, first compound 0.0316 µM
[19] = second compound 1 µM, first compound 0.1 µM
[20] = second compound 1 µM, first compound 0.316 µM
[21] = second compound 1 µM, first compound 1 µM
[22] = second compound 1 µM, first compound 3.16 µM
[23] = second compound 1 µM, first compound 10 µM
[24] = second compound 3.16 µM, first compound 0.0316 µM
[25] = second compound 3.16 µM, first compound 0.1 µM
[26] = second compound 3.16 µM, first compound 0.316 µM
[27] = second compound 3.16 µM, first compound 1 µM
[28] = second compound 3.16 µM, first compound 3.16 µM
[29] = second compound 3.16 µM, first compound 10 µM
[30] = second compound 10 µM, first compound 0.0316 µM
[31] = second compound 10 µM, first compound 0.1 µM
[32] = second compound 10 µM, first compound 0.316 µM
[33] = second compound 10 µM, first compound 1 µM
[34] = second compound 10 µM, first compound 3.16 µM
[35] = second compound 10 µM, first compound 10 µM
[36] = second compound 0.1 µM, first compound 0.00316 µM
[37] = second compound 0.1 µM, first compound 0.01 µM
[38] = second compound 0.316 µM, first compound 0.00316 µM
[39] = second compound 0.316 µM, first compound 0.01 µM
[40] = second compound 1 µM, first compound 0.00316 µM
[41] = second compound 1 µM, first compound 0.01 µM
[42] = second compound 3.16 µM, first compound 0.00316 µM
[43] = second compound 3.16 µM, first compound 0.01 µM
[44] = second compound 10 µM, first compound 0.00316 µM
[45] = second compound 10 µM, first compound 0.01 µM
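Also: spheroids exposed to agents for 7 days before readout.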
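For viability, T/C in this document: 100% = DMSO vehicle control wells.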

SMILES: O=C(c1cc(Cc2n[nH]c(=O)c3ccccc23)ccc1F)N1CCN(C(=O)C2CC2)CC1 + CC(CO)NC(=O)c1cc(-c2ccc(Cl)cc2)nn(-c2cnn(C)c2)c1=O
IC50 [1]: > 10 µM
IC50 [2]: > 10 µM
IC50 [3]: > 10 µM
IC50 [4]: > 10 µM
IC50 [5]: > 10 µM
viability, T/C [6]: 106%
viability, T/C [7]: 100%
viability, T/C [8]: 98.3%
viability, T/C [9]: 103%
viability, T/C [10]: 95.3%
viability, T/C [11]: 101%
viability, T/C [12]: 86.3%
viability, T/C [13]: 95.2%
viability, T/C [14]: 91.8%
viability, T/C [15]: 91.9%
viability, T/C [16]: 91%
viability, T/C [17]: 96.1%
viability, T/C [18]: 93.4%
viability, T/C [19]: 96.3%
viability, T/C [20]: 100%
viability, T/C [21]: 93.1%
viability, T/C [22]: 94.8%
viability, T/C [23]: 97%
viability, T/C [24]: 93.6%
viability, T/C [25]: 92.5%
viability, T/C [26]: 99.4%
viability, T/C [27]: 87.5%
viability, T/C [28]: 96.4%
viability, T/C [29]: 92.9%
viability, T/C [30]: 103%
viability, T/C [31]: 109%
viability, T/C [32]: 97.9%
viability, T/C [33]: 96.7%
viability, T/C [34]: 93.7%
viability, T/C [35]: 105%

SMILES: Nc1ncn(C2CC(O)C(CO)O2)c(=O)n1 (stereo not given) + Cc1cncc(-c2nc(NCCc3c[nH]c4ccccc34)c3ncn(C(C)C)c3n2)c1
IC50 [1]: > 1 µM
IC50 [2]: > 1 µM
IC50 [3]: > 1 µM
IC50 [4]: > 1 µM
IC50 [5]: > 1 µM
viability, T/C [36]: 105%
viability, T/C [37]: 98.7%
viability, T/C [6]: 104%
viability, T/C [7]: 95.1%
viability, T/C [8]: 92%
viability, T/C [9]: 96%
viability, T/C [38]: 99.4%
viability, T/C [39]: 99.8%
viability, T/C [12]: 93.5%
viability, T/C [13]: 96.3%
viability, T/C [14]: 94.8%
viability, T/C [15]: 94.4%
viability, T/C [40]: 109%
viability, T/C [41]: 107%
viability, T/C [18]: 98.5%
viability, T/C [19]: 93%
viability, T/C [20]: 106%
viability, T/C [21]: 93.7%
viability, T/C [42]: 104%
viability, T/C [43]: 108%
viability, T/C [24]: 104%
viability, T/C [25]: 100%
viability, T/C [26]: 103%
viability, T/C [27]: 98.4%
viability, T/C [44]: 113%
viability, T/C [45]: 114%
viability, T/C [30]: 131%
viability, T/C [31]: 109%
viability, T/C [32]: 107%
viability, T/C [33]: 120%

SMILES: O=C(C=Cc1cccc(S(=O)(=O)Nc2ccccc2)c1)NO
viability, T/C (compound 0.0316 µM): 101% and 91.6% and 104%
viability, T/C (compound 0.1 µM): 95.5% and 88.6% and 91.7%
viability, T/C (compound 0.316 µM): 93.9% and 90.1% and 87.8%
viability, T/C (compound 1 µM): 84.5% and 64.3% and 93%
viability, T/C (compound 3.16 µM): 83.8% and 59.3% and 84.6%
viability, T/C (compound 10 µM): 59.8% and 39.6% and 51.1%
IC50 (curve of compound): > 10 µM and 4.74 µM

SMILES: CC1COCCN1c1cc(C2(S(C)(=N)=O)CC2)nc(-c2ccnc3[nH]ccc23)n1 (stereo not given) + Cc1ccccc1N=Nc1ccc(NC(=O)c2ccnn2C)c(C)c1
IC50 [1]: > 10 µM
IC50 [2]: > 10 µM
IC50 [3]: > 10 µM
IC50 [4]: > 10 µM
IC50 [5]: > 10 µM
viability, T/C [6]: 92.1%
viability, T/C [7]: 101%
viability, T/C [8]: 92.2%
viability, T/C [9]: 97.3%
viability, T/C [10]: 98.8%
viability, T/C [11]: 102%
viability, T/C [12]: 99%
viability, T/C [13]: 87.6%
viability, T/C [14]: 109%
viability, T/C [15]: 88.4%
viability, T/C [16]: 86.8%
viability, T/C [17]: 99.1%
viability, T/C [18]: 104%
viability, T/C [19]: 99.4%
viability, T/C [20]: 95.8%
viability, T/C [21]: 88%
viability, T/C [22]: 88.4%
viability, T/C [23]: 81.5%
viability, T/C [24]: 86.8%
viability, T/C [25]: 85.7%
viability, T/C [26]: 95.5%
viability, T/C [27]: 78.6%
viability, T/C [28]: 83.2%
viability, T/C [29]: 80.4%
viability, T/C [30]: 85.4%
viability, T/C [31]: 89.1%
viability, T/C [32]: 87.4%
viability, T/C [33]: 84.8%
viability, T/C [34]: 78.4%
viability, T/C [35]: 75%

The next lines start with results.

IC50 [1]: > 3 µM
IC50 [2]: > 3 µM
IC50 [3]: > 3 µM
IC50 [4]: > 3 µM
IC50 [5]: > 3 µM
SMILES: O=C(C=Cn1cnc(-c2cc(C(F)(F)F)cc(C(F)(F)F)c2)n1)NNc1cnccn1 + Cc1cncc(-c2nc(NCCc3c[nH]c4ccccc34)c3ncn(C(C)C)c3n2)c1
viability, T/C (second compound 0.1 µM, first compound 0.00949 µM): 103%
viability, T/C (second compound 0.1 µM, first compound 0.03 µM): 95.6%
viability, T/C (second compound 0.1 µM, first compound 0.0949 µM): 112%
viability, T/C (second compound 0.1 µM, first compound 0.3 µM): 122%
viability, T/C (second compound 0.1 µM, first compound 0.949 µM): 124%
viability, T/C (second compound 0.1 µM, first compound 3 µM): 96.5%
viability, T/C (second compound 0.316 µM, first compound 0.00949 µM): 96.2%
viability, T/C (second compound 0.316 µM, first compound 0.03 µM): 92.5%
viability, T/C (second compound 0.316 µM, first compound 0.0949 µM): 97.5%
viability, T/C (second compound 0.316 µM, first compound 0.3 µM): 107%
viability, T/C (second compound 0.316 µM, first compound 0.949 µM): 106%
viability, T/C (second compound 0.316 µM, first compound 3 µM): 83.7%
viability, T/C (second compound 1 µM, first compound 0.00949 µM): 94.5%
viability, T/C (second compound 1 µM, first compound 0.03 µM): 102%
viability, T/C (second compound 1 µM, first compound 0.0949 µM): 98.7%
viability, T/C (second compound 1 µM, first compound 0.3 µM): 105%
viability, T/C (second compound 1 µM, first compound 0.949 µM): 108%
viability, T/C (second compound 1 µM, first compound 3 µM): 104%
viability, T/C (second compound 3.16 µM, first compound 0.00949 µM): 111%
viability, T/C (second compound 3.16 µM, first compound 0.03 µM): 101%
viability, T/C (second compound 3.16 µM, first compound 0.0949 µM): 102%
viability, T/C (second compound 3.16 µM, first compound 0.3 µM): 117%
viability, T/C (second compound 3.16 µM, first compound 0.949 µM): 103%
viability, T/C (second compound 3.16 µM, first compound 3 µM): 96.2%
viability, T/C (second compound 10 µM, first compound 0.00949 µM): 80.4%
viability, T/C (second compound 10 µM, first compound 0.03 µM): 80.2%
viability, T/C (second compound 10 µM, first compound 0.0949 µM): 84.4%
viability, T/C (second compound 10 µM, first compound 0.3 µM): 102%
viability, T/C (second compound 10 µM, first compound 0.949 µM): 102%
viability, T/C (second compound 10 µM, first compound 3 µM): 101%

IC50 (compound alone, run of 08/16/2022): > 10 µM
SMILES: Cc1cncc(-c2nc(NCCc3c[nH]c4ccccc34)c3ncn(C(C)C)c3n2)c1
viability, T/C (compound 0.1 µM): 95.2% [middle of 20 runs]
viability, T/C (compound 0.316 µM): 94.5% [middle of 20 runs]

IC50 [1]: > 1 µM
IC50 [2]: > 1 µM
IC50 [3]: > 1 µM
IC50 [4]: > 1 µM
IC50 [5]: > 1 µM
SMILES: CC1COCCN1c1cc(-c2ccnn2C)c2ccnc(-c3ccn[nH]3)c2n1 (stereo not given) + CC(CO)NC(=O)c1cc(-c2ccc(Cl)cc2)nn(-c2cnn(C)c2)c1=O
viability, T/C [36]: 105%
viability, T/C [37]: 97.6%
viability, T/C [6]: 99.9%
viability, T/C [7]: 91.4%
viability, T/C [8]: 99.2%
viability, T/C [9]: 88.8%
viability, T/C [38]: 92%
viability, T/C [39]: 97.7%
viability, T/C [12]: 93.9%
viability, T/C [13]: 97.2%
viability, T/C [14]: 93.4%
viability, T/C [15]: 71.5%
viability, T/C [40]: 87.6%
viability, T/C [41]: 90%
viability, T/C [18]: 93.4%
viability, T/C [19]: 96.2%
viability, T/C [20]: 88.9%
viability, T/C [21]: 81.8%
viability, T/C [42]: 112%
viability, T/C [43]: 91.7%
viability, T/C [24]: 105%
viability, T/C [25]: 92.2%
viability, T/C [26]: 88.5%
viability, T/C [27]: 65.6%
viability, T/C [44]: 112%
viability, T/C [45]: 91.8%
viability, T/C [30]: 92.1%
viability, T/C [31]: 93.2%
viability, T/C [32]: 95.9%
viability, T/C [33]: 76.8%
